Experimental data from patent publication US20190336615A1, “TUMOR TARGETING CONJUGATES AND METHODS OF USE THEREOF” (SILVERBACK THERAPEUTICS, INC., priority 2017, published 2019).

Key:
[1] = system: PBMCs; test: TNFα production by PBMCs with antigen-expressing tumor cells (AlphaLISA); format: cell-based, human; details: PBMCs with SKBR3 tumor cells (HER2), 24 hours, FIG. 20
Description: Anti-HER2-antiCD40 G1 antibody was prepared as described in Example 18. Pertuzumab was used as the HER2 G1WT antibody. Conjugates were prepared as generally described in Example 15. PBMCs were isolated from human blood as described above. Briefly, PBMCs were isolated by Ficoll gradient centrifugation, resuspended in RPMI, and plated in 96-well flat bottom microtiter plates (125,000/well). Antigen-expressing tumor cells were then added (25,000/well) along with titrating concentrations of conjugates or unconjugated parental antibodies as controls. After overnight culture, supernatants were harvested, and TNFα levels were determined by AlphaLISA.
Referring to FIG. 20, SKBR3 tumor cells were added to PBMCs, prepared as described above. SKBR3 tumor cells express the tumor antigen HER2. Anti-HER2 TLR8 benzazepine agonist conjugates, either monospecific or bispecific with CD40, and conjugated to various TLR8 benzazepine agonists were added. The immune-stimulatory compound-linkers in the conjugates used in the study are identified in TABLES 30 and 31.

[2] = system: monocytes; test: TNFα production by monocytes with or without tumor cells (AlphaLISA); format: cell-based, human; details: monocytes with CEA-expressing CHO cells, FIG. 22
Description: Monocytes were prepared as follows: PBMCs were isolated from normal human blood using Ficoll purification, and monocytes were enriched from the PBMCs using Stem Cell Technologies Human Monocyte without CD16 Depletion Negative Selection Kits according to the manufacturer's instructions. Monocytes were then slowly frozen and stored in liquid nitrogen. Prior to assay monocytes were thawed and rested overnight at 37° C. in 5% CO2 in assay media (RPMI 1640 media supplemented with 10% FBS, […], 1 mM HEPES, 1× non-essential amino acids, 0.1 mM sodium pyruvate). The following day, monocytes were plated at 4×10^4 cell/well with or without tumor cells at 4×10^4 cell/well in 96-well flat bottom plates in assay media described above. After overnight culture, supernatants were harvested, and TNFα levels were determined by AlphaLISA.

Pertuzumab [HER2 G1WT, reference compound]
TNFα production [1]: did not stimulate TNFα production
TNFα production [2]: only the CEA conjugate exhibited activity
